According to US6355799B1, “Substituted benzene compounds, process for their preparation, and herbicidal and defoliant compositions containing them” (ISK Americas Incorporated, priority 1997, dated 2002):

Experiments:
Assay type in all cases: in vivo
[1] = test system: redroot pigweed (Amaranthus retroflexus, AMARE); assay: Pre-emerge test, greenhouse herbicide activity screening; conditions: rating scale 0-100, 14 days after application
Summary of the method: (§1)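 Rating: 0–100 visual injury, 14 DAA. Application: acetone, 187 l/ha, 15–1000 g ai/ha, flat-fan track sprayer with nozzle 40–45 cm above soil or canopy. Post-emerge runs used 0.25% v/v surfactant on 2–3 leaf plants.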

[2] = test system: large crabgrass (Digitaria sanguinalis, DIGSA); assay: as above; conditions: rating scale 0-100, 14 days after application
Summary of the method: (§2)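 Compounds in acetone were track-sprayed at 187 l/ha, 15–1000 g ai/ha, onto sandy loam pots. Pre-emerge seeds were sown one day before spraying, with surface watering afterwards. Post-emerge plants were at the 2–3 leaf stage and sprayed with 0.25% v/v non-ionic surfactant. Injury was rated 0–100 at 14 days.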

[3] = test system: sicklepod (Cassia obtusifolia, CASOB); assay: as above; conditions: rating scale 0-100, 14 days after application
Summary of the method: as §2

[4] = test system: velvetleaf (Abutilon theophrasti, ABUTH); assay: as above; conditions: rating scale 0-100, 14 days after application
Summary of the method: as §2

[5] = test system: ivyleaf morningglory (Ipomoea hederacea, IPOHE); assay: as above; conditions: rating scale 0-100, 14 days after application
Summary of the method: as §2

[6] = test system: johnsongrass (Sorghum halepense, SORHA); assay: as above; conditions: rating scale 0-100, 14 days after application
Summary of the method: as §2

[7] = test system: green foxtail (Setaria viridis, SETVI); assay: as above; conditions: rating scale 0-100, 14 days after application
Summary of the method: as §2

[8] = test system: lambsquarters (Chenopodium album, CHEAL); assay: as above; conditions: rating scale 0-100, 14 days after application
Summary of the method: as §2

[9] = test system: barnyardgrass (Echinochloa crus-galli, ECHCG); assay: as above; conditions: rating scale 0-100, 14 days after application
Summary of the method: as §2

[10] = test system: upland rice (Oryza sp., var. Tebonnet, RICE); assay: Pre-emerge test, crop safety; conditions: rating scale 0-100, 14 days after application
Summary of the method: (§3)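 Fourteen days after spraying, crop and weed injury was graded visually from 0, no effect, to 100, every plant dead. Test substances were dissolved in acetone and applied at 15–1000 g ai/ha with a flat-fan nozzle. Application was either pre-emergence, one day after sowing, or post-emergence at the 2–3 leaf stage.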

[11] = test system: field corn (Zea mays L., var. Dekalb 535, CORN); assay: Pre-emerge test, crop safety; conditions: rating scale 0-100, 14 days after application
Summary of the method: as §3

[12] = test system: large crabgrass (Digitaria sanguinalis, DIGSA); assay: Post-emerge test, greenhouse herbicide activity screening; conditions: rating scale 0-100 (0 no damage, 100 complete death), 14 days after application
Summary of the method: as §1

[13] = test system: sicklepod (Cassia obtusifolia, CASOB); assay: as above; conditions: rating scale 0-100 (0 no damage, 100 complete death), 14 days after application
Summary of the method: as §1

[14] = test system: velvetleaf (Abutilon theophrasti, ABUTH); assay: as above; conditions: rating scale 0-100 (0 no damage, 100 complete death), 14 days after application
Summary of the method: as §1

[15] = test system: ivyleaf morningglory (Ipomoea hederacea, IPOHE); assay: as above; conditions: rating scale 0-100 (0 no damage, 100 complete death), 14 days after application
Summary of the method: as §1

[16] = test system: johnsongrass (Sorghum halepense, SORHA); assay: as above; conditions: rating scale 0-100 (0 no damage, 100 complete death), 14 days after application
Summary of the method: as §1

[17] = test system: green foxtail (Setaria viridis, SETVI); assay: as above; conditions: rating scale 0-100 (0 no damage, 100 complete death), 14 days after application
Summary of the method: as §1

[18] = test system: redroot pigweed (Amaranthus retroflexus, AMARE); assay: as above; conditions: rating scale 0-100 (0 no damage, 100 complete death), 14 days after application
Summary of the method: as §1

[19] = test system: lambsquarters (Chenopodium album, CHEAL); assay: as above; conditions: rating scale 0-100 (0 no damage, 100 complete death), 14 days after application
Summary of the method: as §1

[20] = test system: common ragweed (Ambrosia artemisizfolia L., AMBEL); assay: as above; conditions: rating scale 0-100 (0 no damage, 100 complete death), 14 days after application
Summary of the method: as §1

[21] = test system: barnyardgrass (Echinochloa crus-galli, ECHCG); assay: as above; conditions: rating scale 0-100 (0 no damage, 100 complete death), 14 days after application
Summary of the method: as §1

[22] = test system: upland rice (Oryza sp., var. Tebonnet, RICE); assay: Post-emerge test, crop safety; conditions: rating scale 0-100 (0 no damage, 100 complete death), 14 days after application
Summary of the method: as §2

[23] = test system: field corn (Zea mays L., var. Dekalb 535, CORN); assay: Post-emerge test, crop safety; conditions: rating scale 0-100 (0 no damage, 100 complete death), 14 days after application
Summary of the method: as §2

Q: For `CCOCCOC(=O)C(Cl)Cc1c(OC)c(Cl)cc(F)c1-n1c(=O)cc(C(F)(F)F)n(C)c1=O` (stereo not shown) [14-26], which “Pre-emerge herbicidal activity, phytotoxicity rating AMARE” value ([1]; 63 g ai/ha) is on record?
A: 100

Q: What about the “Pre-emerge herbicidal activity, phytotoxicity rating AMARE” value ([1]; 250 g ai/ha) of the same compound?
A: 100

Q: And the “Pre-emerge herbicidal activity, phytotoxicity rating DIGSA” value ([2]; 63 g ai/ha)?
A: 50

Q: What about the “Pre-emerge herbicidal activity, phytotoxicity rating DIGSA” value ([2]; 250 g ai/ha) of the same compound?
A: 95

Q: What about the “Pre-emerge herbicidal activity, phytotoxicity rating CASOB” value ([3]; 63 g ai/ha) of the same compound?
A: 0

Q: And the “Pre-emerge herbicidal activity, phytotoxicity rating CASOB” value ([3]; 250 g ai/ha)?
A: 20

Q: And the “Pre-emerge herbicidal activity, phytotoxicity rating ABUTH” value ([4]; 63 g ai/ha)?
A: 80

Q: And the “Pre-emerge herbicidal activity, phytotoxicity rating ABUTH” value ([4]; 250 g ai/ha)?
A: 100

Q: And the “Pre-emerge herbicidal activity, phytotoxicity rating IPOHE” value ([5]; 63 g ai/ha)?
A: 0

Q: What about the “Pre-emerge herbicidal activity, phytotoxicity rating IPOHE” value ([5]; 250 g ai/ha) of the same compound?
A: 0

Q: And the “Pre-emerge herbicidal activity, phytotoxicity rating SORHA” value ([6]; 63 g ai/ha)?
A: 0

Q: What about the “Pre-emerge herbicidal activity, phytotoxicity rating SORHA” value ([6]; 250 g ai/ha) of the same compound?
A: 70

Q: What about the “Pre-emerge herbicidal activity, phytotoxicity rating SETVI” value ([7]; 63 g ai/ha) of the same compound?
A: 0

Q: And the “Pre-emerge herbicidal activity, phytotoxicity rating SETVI” value ([7]; 250 g ai/ha)?
A: 99

Q: What about the “Pre-emerge herbicidal activity, phytotoxicity rating CHEAL” value ([8]; 63 g ai/ha) of the same compound?
A: 70

Q: And the “Pre-emerge herbicidal activity, phytotoxicity rating CHEAL” value ([8]; 250 g ai/ha)?
A: 100

Q: What about the “Pre-emerge herbicidal activity, phytotoxicity rating ECHCG” value ([9]; 63 g ai/ha) of the same compound?
A: 0

Q: And the “Pre-emerge herbicidal activity, phytotoxicity rating ECHCG” value ([9]; 250 g ai/ha)?
A: 95

Q: And the “Pre-emerge phytotoxicity rating, crop damage RICE” value ([10]; 63 g ai/ha)?
A: 0

Q: And the “Pre-emerge phytotoxicity rating, crop damage RICE” value ([10]; 250 g ai/ha)?
A: 80

Q: What about the “Pre-emerge phytotoxicity rating, crop damage CORN” value ([11]; 63 g ai/ha) of the same compound?
A: 0

Q: And the “Pre-emerge phytotoxicity rating, crop damage CORN” value ([11]; 250 g ai/ha)?
A: 50

Q: What about the “Post-emerge Herbicidal Activity, phytotoxicity rating DIGSA” value ([12]; Rate 63 g ai/ha) of the same compound?
A: 100

Q: And the “Post-emerge Herbicidal Activity, phytotoxicity rating DIGSA” value ([12]; Rate 250 g ai/ha)?
A: 100

Q: What about the “Post-emerge Herbicidal Activity, phytotoxicity rating CASOB” value ([13]; Rate 63 g ai/ha) of the same compound?
A: 50

Q: And the “Post-emerge Herbicidal Activity, phytotoxicity rating CASOB” value ([13]; Rate 250 g ai/ha)?
A: 90

Q: What about the “Post-emerge Herbicidal Activity, phytotoxicity rating ABUTH” value ([14]; Rate 63 g ai/ha) of the same compound?
A: 70

Q: What about the “Post-emerge Herbicidal Activity, phytotoxicity rating ABUTH” value ([14]; Rate 250 g ai/ha) of the same compound?
A: 100

Q: And the “Post-emerge Herbicidal Activity, phytotoxicity rating IPOHE” value ([15]; Rate 63 g ai/ha)?
A: 20

Q: What about the “Post-emerge Herbicidal Activity, phytotoxicity rating IPOHE” value ([15]; Rate 250 g ai/ha) of the same compound?
A: 100

Q: And the “Post-emerge Herbicidal Activity, phytotoxicity rating SORHA” value ([16]; Rate 63 g ai/ha)?
A: 30

Q: And the “Post-emerge Herbicidal Activity, phytotoxicity rating SORHA” value ([16]; Rate 250 g ai/ha)?
A: 70

Q: What about the “Post-emerge Herbicidal Activity, phytotoxicity rating SETVI” value ([17]; Rate 63 g ai/ha) of the same compound?
A: 0

Q: And the “Post-emerge Herbicidal Activity, phytotoxicity rating SETVI” value ([17]; Rate 250 g ai/ha)?
A: 0

Q: And the “Post-emerge Herbicidal Activity, phytotoxicity rating AMARE” value ([18]; Rate 63 g ai/ha)?
A: 90

Q: What about the “Post-emerge Herbicidal Activity, phytotoxicity rating AMARE” value ([18]; Rate 250 g ai/ha) of the same compound?
A: 100

Q: What about the “Post-emerge Herbicidal Activity, phytotoxicity rating CHEAL” value ([19]; Rate 63 g ai/ha) of the same compound?
A: 60

Q: What about the “Post-emerge Herbicidal Activity, phytotoxicity rating CHEAL” value ([19]; Rate 250 g ai/ha) of the same compound?
A: 100

Q: And the “Post-emerge Herbicidal Activity, phytotoxicity rating AMBEL” value ([20]; Rate 63 g ai/ha)?
A: 100

Q: What about the “Post-emerge Herbicidal Activity, phytotoxicity rating AMBEL” value ([20]; Rate 250 g ai/ha) of the same compound?
A: 100

Q: What about the “Post-emerge Herbicidal Activity, phytotoxicity rating ECHCG” value ([21]; Rate 63 g ai/ha) of the same compound?
A: 100

Q: And the “Post-emerge Herbicidal Activity, phytotoxicity rating ECHCG” value ([21]; Rate 250 g ai/ha)?
A: 100

Q: And the “Post-emerge phytotoxicity rating RICE (crop damage)” value ([22]; Rate 63 g ai/ha)?
A: 10

Q: What about the “Post-emerge phytotoxicity rating RICE (crop damage)” value ([22]; Rate 250 g ai/ha) of the same compound?
A: 10

Q: What about the “Post-emerge phytotoxicity rating CORN (crop damage)” value ([23]; Rate 63 g ai/ha) of the same compound?
A: 40

Q: What about the “Post-emerge phytotoxicity rating CORN (crop damage)” value ([23]; Rate 250 g ai/ha) of the same compound?
A: 100
